{
  "source": "patent US6352737B1",
  "about": "“Use of nanoscale sterols and sterol esters” (Cognis Deutschland GmbH, priority 1999, dated 2002)",
  "test_system": "radioactive cholesterol",
  "assay": "Hypocholesterolemic effect: content of radioactive cholesterol in blood of rats after oral gelatine capsule",
  "type": "in vivo",
  "details": "male rats, relative to blank group, mean of 10 animals; for Radioactivity After 3 h: blood 3 h after gelatine capsule (5% by weight sterol/ester, 0.5% by weight radioactively marked cholesterol) via stomach probe; for Radioactivity After 6 h: blood 6 h after gelatine capsule via stomach probe; for Radioactivity After 12 h: blood 12 h after gelatine capsule via stomach probe; for Radioactivity After 24 h: blood 24 h after gelatine capsule via stomach probe; for Radioactivity After 48 h: blood 48 h after gelatine capsule via stomach probe",
  "procedure": "Gelatine capsules (weight ca. 1.5 g) containing 5% by weight β-sitostanol or β-sitostanolester (nanoparticles encapsulated in a gelatine or chitosan matrix and non-nanoscale commercial products) and 0.5% by weight of radioactively marked cholesterol were prepared. To study the hypocholesterolemic effect, male rats (individual weight ca.200 g) were allowed no food overnight. The next day, a size-reduced gelatine capsule was inserted into each test animal via a stomach probe together with a little water containing sodium chloride. After 3, 6, 12, 24 and 48 h, blood was taken from the animals and the content of radioactive cholesterol was determined. The results, which represent the mean value of the measurements of 10 test animals, are set out in Table 2. The figures relating to the reduction in radioactivity are based on a blank group of test animals which were only given gelatine capsules containing 20% by weight of vitamin E and a corresponding quantity of radioactively marked cholesterol. Examples 1 and 2 correspond to the invention, Examples C1 and C2 are intended for comparison.",
  "data": [
    {"smiles": "CCCCCCCCCCCCCCCCCC(=O)O[C@H]1CC[C@@]2(C)[C@@H](CC[C@@H]3[C@@H]2CC[C@]2(C)[C@@H]([C@H](C)CC[C@@H](CC)C(C)C)CC[C@@H]32)C1", "note": "[Example C2, β-Sitostanyl stearate]", "values": [
      {"measurement": "Radioactivity After 3 h", "result": 90, "unit": "%-rel."},
      {"measurement": "Radioactivity After 6 h", "result": 80, "unit": "%-rel."},
      {"measurement": "Radioactivity After 12 h", "result": 71, "unit": "%-rel."},
      {"measurement": "Radioactivity After 24 h", "result": 44, "unit": "%-rel."},
      {"measurement": "Radioactivity After 48 h", "result": 26, "unit": "%-rel."}
    ]},
    {"smiles": "CC[C@H](CC[C@@H](C)[C@H]1CC[C@H]2[C@@H]3CC[C@H]4C[C@@H](O)CC[C@]4(C)[C@H]3CC[C@]12C)C(C)C", "note": "[Example C1, β-Sitostanol]", "values": [
      {"measurement": "Radioactivity After 3 h", "result": 93, "unit": "%-rel."},
      {"measurement": "Radioactivity After 6 h", "result": 83, "unit": "%-rel."},
      {"measurement": "Radioactivity After 12 h", "result": 75, "unit": "%-rel."},
      {"measurement": "Radioactivity After 24 h", "result": 50, "unit": "%-rel."},
      {"measurement": "Radioactivity After 48 h", "result": 32, "unit": "%-rel."}
    ]}
  ]
}
